# Patent US20230054595A1, “NOVEL DRUGGABLE TARGETS FOR THE TREATMENT OF INFLAMMATORY DISEASES SUCH AS SYSTEMIC LUPUS ERYTHEMATOSUS (SLE) AND METHODS FOR DIAGNOSIS AND TREATMENT USING THE SAME” (THE CHILDREN'S HOSPITAL OF PHILADELPHIA, priority 2019, published 2023)
# Tested on: TFH cells
# Assay: IL-21 secretion by in vitro differentiated TFH cells cultured with pharmacologic inhibitors (ELISA)
# Format: cell-based, human
# Settings: 5 days with inhibitor (A64 150-2500 nM; PF06260933 3.7-100 nM), restimulated with anti-CD3+anti-CD28, ELISA
# Description: Human primary CD4+ T cells were cultured under TFH condition for 5 days in the presence of the indicated concentrations of each inhibitor (150 nM to 2500 nM for A64, 3.7 nM to 100 nM for PF06260933). In addition, anti-CD3- and anti-CD28-stimulated human CD4+ T cells (non-TFH) were cultured in the presence of inhibitors. After 5 days of primary culture, cells were harvested and 10^6 cells were restimulated with plate-bound human anti-CD3+ anti-CD28 (1 ug/ml each) in the presence of inhibitors. Culture supernatants were collected at the indicated timepoints for measurement of IL-2 and IL-21 by ELISA (eBioscience).
structure (smiles),measurement,setting,value
Nc1ccc(-c2cnc(N)c(-c3ccc(Cl)cc3)c2)cn1 [PF06260933],IL-21 production by TFH cells,,dose-dependent reduction
same,IL-21 production by TFH cells,listed as MINK inhibitory drug,dose-dependent inhibition
